Laboratory results reported in ChEMBL document CHEMBL1159054, “Cyclic diarylheptanoids as Na+-glucose cotransporter (SGLT) inhibitors from Acer nikoense” (Bioorg Med Chem Lett, 2010).

Key:
[1] = molecular target: T1, Sodium/glucose cotransporter 2 (Homo sapiens) (UniProt P31639); assay: Inhibition of human SGLT2 expressed in COS1 cells assessed as [14C]methyl-alpha-D-glucopyranoside uptake at 50 uM; type: cell-based; settings: COS-1
T1 sequence (whole entry): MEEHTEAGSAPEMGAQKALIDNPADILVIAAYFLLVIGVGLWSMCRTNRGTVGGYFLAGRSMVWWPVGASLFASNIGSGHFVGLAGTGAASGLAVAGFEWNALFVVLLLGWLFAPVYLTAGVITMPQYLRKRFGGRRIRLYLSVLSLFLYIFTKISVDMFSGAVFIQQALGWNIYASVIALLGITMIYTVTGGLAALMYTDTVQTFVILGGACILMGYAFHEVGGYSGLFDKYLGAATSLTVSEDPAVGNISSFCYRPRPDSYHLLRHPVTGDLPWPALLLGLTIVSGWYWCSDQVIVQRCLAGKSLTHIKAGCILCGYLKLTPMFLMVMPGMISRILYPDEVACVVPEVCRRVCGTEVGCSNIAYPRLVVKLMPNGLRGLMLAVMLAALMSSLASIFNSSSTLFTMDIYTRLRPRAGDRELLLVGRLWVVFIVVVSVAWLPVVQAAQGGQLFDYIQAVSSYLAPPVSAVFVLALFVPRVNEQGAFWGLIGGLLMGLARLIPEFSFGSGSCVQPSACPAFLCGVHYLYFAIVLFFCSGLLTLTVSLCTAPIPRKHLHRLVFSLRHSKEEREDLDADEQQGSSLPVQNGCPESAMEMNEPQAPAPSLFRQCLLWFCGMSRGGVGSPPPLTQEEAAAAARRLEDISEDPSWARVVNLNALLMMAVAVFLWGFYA

[2] = molecular target: T2, Sodium/glucose cotransporter 1 (Homo sapiens) (UniProt P13866); assay: Inhibition of human SGLT1 expressed in COS1 cells assessed as [14C]methyl-alpha-D-glucopyranoside uptake at 50 uM; type: cell-based; settings: COS-1
T2 sequence (whole entry): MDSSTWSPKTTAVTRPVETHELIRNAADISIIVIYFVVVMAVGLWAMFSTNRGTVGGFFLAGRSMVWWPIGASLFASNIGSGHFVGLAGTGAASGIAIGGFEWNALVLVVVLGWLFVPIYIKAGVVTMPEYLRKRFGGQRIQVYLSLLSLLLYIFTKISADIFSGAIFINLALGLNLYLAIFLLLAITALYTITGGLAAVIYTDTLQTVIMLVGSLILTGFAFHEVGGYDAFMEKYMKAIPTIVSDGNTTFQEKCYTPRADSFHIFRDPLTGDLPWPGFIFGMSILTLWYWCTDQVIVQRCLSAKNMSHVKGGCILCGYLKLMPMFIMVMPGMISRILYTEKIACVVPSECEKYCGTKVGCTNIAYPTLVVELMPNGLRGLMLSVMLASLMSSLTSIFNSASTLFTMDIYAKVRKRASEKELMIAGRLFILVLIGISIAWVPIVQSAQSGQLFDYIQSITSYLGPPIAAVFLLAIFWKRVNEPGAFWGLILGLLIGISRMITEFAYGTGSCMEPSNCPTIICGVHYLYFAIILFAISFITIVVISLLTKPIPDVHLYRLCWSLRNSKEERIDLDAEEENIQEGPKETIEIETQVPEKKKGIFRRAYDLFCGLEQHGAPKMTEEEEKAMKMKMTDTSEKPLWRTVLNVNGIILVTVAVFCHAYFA

Compound | inhibition [1] [%] | inhibition [2] [%]
CC(C)C(=O)Oc1ccc2cc1Oc1ccc(cc1)CC[C@@H](OC(=O)C(C)C)CCCC2 | 34.3 | 20.6
O=C1CCCCc2ccc(O)c(c2)Oc2ccc(cc2)CC1 | 67.8 | 44.9
O=C(Oc1ccc2cc1Oc1ccc(cc1)CC[C@@H](OC(=O)c1ccccc1)CCCC2)c1ccccc1 | -9.7 | -1.7
OC[C@H]1O[C@H](Oc2ccc3cc2Oc2ccc(cc2)CC[C@@H](O)CCCC3)[C@H](O)[C@@H](O)[C@@H]1O | 15 | 18.3
O=C1CCCCc2ccc(OC(=O)c3ccccc3)c(c2)Oc2ccc(cc2)CC1 | 45.2 | 1.4
COc1ccc2cc1Oc1ccc(cc1)CC[C@@H](O)CCCC2 | 29.5 | 67.8
COc1ccc2cc1Oc1ccc(cc1)CCCCC(O)CC2 (stereo not drawn) | 62.4 | 77.9
Oc1ccc2cc1Oc1ccc(cc1)CCCCCCC2 | 77.4 | 96.3
CC(=O)Oc1ccc2cc1Oc1ccc(cc1)CCC(=O)CCCC2 | 19.3 | 13.5
O[C@H]1CCCCc2ccc(OCc3ccccc3)c(c2)Oc2ccc(cc2)CC1 | 45.3 | 31.4

Now from value to compound:

inhibition [1] [%] | inhibition [2] [%] | Compound
15.3 | 73.7 | Oc1ccc2cc1Oc1ccc(cc1)C/C=C/CCCC2
33.9 | 92.7 | Oc1ccc2cc1Oc1ccc(cc1)CC[C@H](O)CCCC2
54.2 | 94.2 | Oc1ccc2cc1Oc1ccc(cc1)CCCC[C@H](O)CC2
19.8 | 3.9 | O=C1CCCCc2ccc(OCc3ccccc3)c(c2)Oc2ccc(cc2)CC1
65.4 | 37.7 | COc1ccc2cc1Oc1ccc(cc1)CCCCC(=O)CC2
53.3 | 44.6 | COc1ccc2cc1Oc1ccc(cc1)CCC(=O)CCCC2
67.5 | 68.8 | CC(=O)Oc1ccc2cc1Oc1ccc(cc1)CC[C@@H](OC(C)=O)CCCC2
76.9 | 46.5 | O=C1CCc2ccc(cc2)Oc2cc(ccc2O)CCCCN1
16.8 | 15.7 | O=C(Oc1ccc2cc1Oc1ccc(cc1)CC[C@@H](OC(=O)c1ccc(Cl)cc1)CCCC2)c1ccc(Cl)cc1
